Patent US12077778B2, “Methods of generating human inner ear sensory epithelia and sensory neurons” (INDIANA UNIVERSITY RESEARCH AND TECHNOLOGY CORPORATION, priority 2015, dated 2024)
Entries after “also recorded” stand apart in the source; their conditions may differ.

Key:
Assay type in all cases: cell-based, human
OEPD-induced aggregates = test: qPCR of PAX8/PAX2 expression after WNT and FGF signaling modulation, days 8-10; settings: one exploratory experiment
Experimental: Thus, we changed strategies by lengthening the initial culture phase to 12 days (with addition of fresh media on day 8) and testing the effect of transitioning the aggregates to Matrigel™ droplets.
Quantitative PCR. Analysis was performed as previously described on an ABI PRISM 7900HT Sequence Detection System (Applied Biosystems) or a Bio-Rad CFX96 quantitative PCR machine (Bio-Rad)^6. Data were normalized to L27 expression (internal control) and the fold change was calculated relative to Ct values from d0 WA25 aggregates using the ΔΔCt method. Unless stated otherwise, data represent at least 3 separate biological samples from separate experiments. All indicators of statistical significance refer to comparisons between a given condition and the control group. Refer to Table 4 for primer details.

WA25 cell aggregates = test: Non-neural ectoderm induction in WA25 hESC aggregates (qPCR, immunostaining)
Experimental: Following a 2-day incubation in E8 Medium, we transferred aggregates to CDM containing a low concentration of Matrigel and FGF-2 to stimulate epithelization and ectoderm differentiation on the aggregate surface. […] Remarkably, 100% of SB treated aggregates generated TFAP2^+ E-cadherin (ECAD)^+ epithelium with a surface ectoderm-like morphology by days 4-6 of differentiation—a time scale consistent with human embryogenesis (n=15 aggregates, 3 experiments; FIGS. 1B-1E; FIGS. 3A-3G). Over a period of 20 days, the epithelium expanded into a cyst composed of TFAP2^+ Keratin-5 (KRT5)^+ keratinocyte-like cells (FIGS. 6A-6E). From these findings, we concluded that treating WA25 cell aggregates with SB is sufficient to induce a non-neural epithelium.
(§1) Curious whether endogenous BMP activity is sufficient for non-neural specification, we performed a co-treatment with the BMP inhibitor, LDN-193189 (hereafter, LSB; dual LDN/SB treatment referred to as LSB). […] We reasoned that variation in endogenous BMP levels may underlie the different outcomes and the BMP concentration may need to be fine-tuned for each cell line. […] With either the SB or SBB approaches, the resulting epithelia closely resembled […] generated with mPSCs^5,6. In contrast to our mouse culture, non-neural conversion occurs without off-target induction of Brachyury (BRA)^+ mesendoderm cells (FIGS. 9A-9C). The following data were generated using either the SB (WA25) or SBB (mND2-0) approaches.
hPSC differentiation. To start differentiation, hPSC cells were dissociated with StemPro Accutase (Invitrogen) and distributed, 5,000 cells per well, onto 96-well V-bottom plates in E8 medium containing 20 μM Y-27632 (Stemgent) and Normocin. […] CDM contained a 50:50 mixture of F-12 Nutrient Mixture with GlutaMAX (Gibco) and Iscove's Modified Dulbecco's Medium with GlutaMAX (IMDM; Gibco) additionally supplemented with 0.5% Bovine Serum Albumin (BSA), 1× Chemically Defined Lipid Concentrate (Invitrogen), […] (Sigma), 15 μg ml^−1 Transferrin (Sigma), 450 μM Mono-Thioglycerol, and Normocin (see Table 1 for a detailed formulation). […] For some experiments, CDM containing a 18 μM CHIR99021 (3 μM final concentration; Stemgent) was added to the pre-existing 125 μl of media in each well—we determined that this treatment is optional for inner ear organoid production, but may improve induction of otic placode-like cells. […]
Quantitative PCR. Analysis was performed as previously described on an ABI PRISM 7900HT Sequence Detection System (Applied Biosystems) or a Bio-Rad CFX96 quantitative PCR machine (Bio-Rad)^6. Data were normalized to L27 expression (internal control) and the fold change was calculated relative to Ct values from d0 WA25 aggregates using the ΔΔCt method. […]

mND2-0 iPSCs = test: Non-neural ectoderm induction in mND2-0 iPSC aggregates
Text: as §1
hPSC differentiation. To start differentiation, hPSC cells were dissociated with StemPro Accutase (Invitrogen) and distributed, 5,000 cells per well, onto 96-well V-bottom plates in E8 medium containing 20 μM Y-27632 (Stemgent) and Normocin. […] For some experiments, CDM containing a 18 μM CHIR99021 (3 μM final concentration; Stemgent) was added to the pre-existing 125 μl of media in each well—we determined that this treatment is optional for inner ear organoid production, but may improve induction of otic placode-like cells. […]

[1] = day 2, 10 μM SB, or 10 μM SB + 10 ng/ml BMP4 (SBB)

CCN(CC)CCCCNc1ncc2cc(-c3cc(OC)cc(OC)c3)c(NC(=O)NC(C)(C)C)nc2n1 [PD-173074]
PAX2 expression (qPCR) compared to DMSO controls (OEPD-induced aggregates): likely inhibits PAX2 expression

NC(=O)c1ccc(-c2nc(-c3ccc4c(c3)OCO4)c(-c3ccccn3)[nH]2)cc1 [SB, SB-431542]
aggregates that generated TFAP2+ E-cadherin (ECAD)+ epithelium with surface ectoderm-like morphology (WA25 cell aggregates; 10 μM SB, days 4-6 of differentiation, n=15 aggregates, 3 experiments): 100%
extraembryonic marker CDX2 expression (qPCR) (WA25 cell aggregates; [1]): no corresponding CDX2 expression
non-neural marker genes TFAP2 and DLX3 expression (qPCR) (WA25 cell aggregates; [1]): upregulated; also recorded: increase in TFAP2 and DLX3 expression
cell types generated (marker immunostaining) (mND2-0 iPSCs; mND2-0 iPSCs, day 6, 10 μM SB alone or with 2.5 ng/ml BMP4): generated PAX6^+ neuroectoderm and TFAP2^+ ECAD^− neural crest-like cells

Oc1nc(-c2ccc(C(F)(F)F)cc2)nc2c1CSCC2 [XAV939]
PAX2 expression (qPCR) compared to DMSO controls (OEPD-induced aggregates): only had a modest positive or negative impact on PAX2 expression

B1: BMP4: recombinant human BMP4, agonist of BMP signaling (protein, UniProt P12644 293-408, looked up)
Bone morphogenetic protein 4: SPKHHSQRARKKNKNCRRHSLYVDFSDVGWNDWIVAPPGYQAFYCHGDCPFPLADHLNSTNHAIVQTLVNSVNSSIPKACCVPTELSAISMLYLDEYDKVVLKNYQEMVVEGCGCR
mesendoderm markers BRA and EOMES expression (qPCR) (WA25 cell aggregates; day 2, BMP4 (B) treatment): upregulated
minimum BMP concentration that produced the morphological changes (translucent sphere) (mND2-0 iPSCs; mND2-0 iPSCs with SB, 1.25-40 ng/ml tested, preliminary experiment): 2.5 ng/ml
